Source: patent US10227347B2, “Purinyl-N-hydroxyl pyrimidine formamide derivative, preparation methods and uses thereof” (Guizhou Bailing Group Pharmaceutical CO., LTD., priority 2015, dated 2019)
pIC50: −log10 of the molar value. Like-named read-outs stand apart in the source and are kept apart here.

Legend:
HDAC1 = target: T1, HDAC1 (Homo sapiens, UniProt Q13547); test: In vitro HDAC1 enzymatic activity inhibition (Lys-Ac-AMC substrate); format: biochemical
T1 construct: purchased BPS Bioscience
Summary of the method: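 Fluorogenic Lys-Ac-AMC deacetylation with trypsin development in modified Tris buffer pH 7.0; compound preincubated with enzyme 15 min at ambient temperature before substrate addition. Final HDAC1 6 nM, trypsin 0.05 μM, Ac-peptide 8 μM. IC50 from four-parameter fit of % inhibition versus concentration.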

[1] = tested on: hct116 cells (colon cancer); test: Cell proliferation inhibition, hct116 (MTT); format: cell-based; conditions: Homo sapiens, HCT-116
Protocol: (§1) The tumor cell lines are purchased from American Type Culture Collection (ATCC) and cultivated to the status of logarithmic growth as per the cultural method recommended by ATCC. The cells in logarithmic phase are spread on a 96 well plate as per 2000-3000/well; as for anchorage-dependent cells, the compound should be added in the test wells at certain concentration for incubation for 96 h after cell adherence. Determining cell proliferation activities with method MTT for tumor cells representing solid tumor model and with method cck-8 for tumor cells representing hematologic tumor model, and analyzing the result data with the software GraphPad Prism.
(§2) Calculating the value of IC50 as per the formula: Y=background data+(top data−background data)/(1+10^((Log IC50−X)*rate of curve)). Where, Y refers to the inhibition ratio (%) and X refers to the compound concentration.

mTOR = target: T2, mTOR (Homo sapiens, UniProt P42345); test: mTOR activity inhibition (ULight-4E-BP1 peptide); format: biochemical; conditions: Table 1, graded
T2 construct: purchased Millipore 14-770
Protocol: mTOR protein is purchased from Millipore Company (Catalog No.: 14-770). The reaction buffer system comprises 50 mM HEPES, 10 mM MgCl2, 1 mM EGTA, 3 mM […], 0.01% Tween-20 (purchased from Chengdu Kelong Chemical Regent Factory) and 2 mM DTT. The pH value of the reaction buffer is 7.5. Preparing 10 μL reaction system in corresponding wells of the 384 well plate, which contains the compositions as: the compound with designed concentration (or blank control), mTOR protein (with the concentration of 2.5 nM), ULight-4E-BP1 (containing the 37th and the 46th threonine residues, Thr37/46) peptide (purchased from PE Company, Catalog No.: TRF0128-M) and ATP substrates (ULight-4E-BP1 peptide, with the concentration of 50 nM and ATP, with the concentration of […]). Mixing it evenly for incubation under ambient temperature for 1 h; adding 10 μL testing liquid containing EDTA (ethylenediaminetetraacetic acid) and Eu-anti-phosphorylation-4E-BP1 (Thr37/46) antibody (purchased from PE Company, Catalog No.: TRF0216-M) into the reaction wells (after the testing liquid is added, the concentration of EDTA is 8 mM and the concentration of Eu-phosphorylation-4E-BP1 antibody is 2 nM); mixing it evenly and incubating it for 1 h under ambient temperature, then measuring the fluorescence intensity with a microplate reader and analyzing the result data with the software GraphPad Prism.
(§3) Calculating the value of IC50 as per the formula: Y=background data+(top data−background data)/(1+10^((Log IC50−X)*rate of curve))
(§4) Where, Y refers to the inhibition ratio (%) and X refers to the compound concentration.

[2] = tested on: A2780s cells (ovarian cancer); test: Cell proliferation inhibition, A2780s (MTT); format: cell-based; conditions: Homo sapiens, 96 h incubation, read-out: Proliferation IC50, Ovarian cancer A2780s
Protocol: as §1, §2

[3] = tested on: MV4-11 cells (acute myeloid leukemia); test: Cell proliferation inhibition, MV4-11 (cck-8); format: cell-based; conditions: Homo sapiens
Protocol: as §1, §2

PI3Kβ = target: T3, PI3Kβ (Homo sapiens, UniProt P42338); test: PI3Kβ activity inhibition (ADP-Glo); format: biochemical; conditions: Table 1, graded
T3 construct: purchased Millipore 14-603-K
Protocol: (§5) Detecting the inhibition capability of the compound to PI3Kβ and PI3Kγ activities with ADP-Glo (purchased from Promege Company; Catalog No.: v9102/3). […] The reaction system also comprises substrates as PIP2 and ATP. The reaction buffer system comprises 50 mM HEPES, 3 mM MgCl2, 1 mM EGTA, 100 mM NaCl, 0.03% CHAPS and 2 mM DTT. The pH value of the reaction buffer is 7.5. […] Mixing the system evenly for incubation under ambient temperature for 1 h; getting a new 384 well plate and transferring 5 μL reaction liquid from the each well of original 384 well plate to the corresponding wells of the new 384 well plate; adding 5 μL ADP-Glo which has been preheated to ambient temperature into each new reaction well to terminate the reaction; oscillating it slowly in dark place for 40 min's incubation after it is mixed evenly; adding 10 μL testing liquid in each reaction well, oscillating it for 1 min to mix evenly and incubating it for 1 h, then measuring the fluorescence intensity with a microplate reader and analyzing the result data with the software GraphPad Prism.
as §3, §4

PI3Kδ = target: T4, PI3Kδ (Homo sapiens, UniProt O00329); test: PI3Kδ activity inhibition (Kinase-Glo); format: biochemical; conditions: Table 1, graded
T4 construct: purchased Millipore 14-604-K
Protocol: Detecting the inhibition capability of the compound to PI3Kα and PI3Kδ activities with Kinase-Glo (purchased from Promege Company; Catalog No.: V3771). […] The reaction system also comprises substrates as PIP2 (4, 5-diphosphoinositide, purchased from Life Technologies Company) and ATP (triphosadenine, purchased from Sigma Company). The reaction buffer system comprises 50 mM HEPES (4-hydroxyethylpiperazine ethane sulfonic acid), 3 mM MgCl2, 1 mM EGTA (ethylene glycol bis(2-amino ethylether)quadrol), 100 mM NaCl, 0.03% CHAPS (3-[3-(cholamidopropyl)dimethylamino]-1-propanesulfonic acid), 2 mM DTT (dithiothreitol). The pH value of the reaction buffer is 7.5. […] Mixing the system evenly for incubation under ambient temperature (for 1 h in PI3Kα test and for 2 h in PI3Kδ test). After incubation, adding 10 μL Kinase-Glo which has been preheated to ambient temperature into each reaction well to terminate the reaction; shaking it in dark place for 15 min after it is mixed evenly, then measuring the fluorescence intensity with a microplate reader and analyzing the result data with the software GraphPad Prism.
as §3, §4

PI3Kα = target: T5, PI3Kα (Homo sapiens, UniProt P42336); test: PI3Kα activity inhibition (Kinase-Glo); format: biochemical; conditions: Table 1, graded; read-out: PI3Kα IC50
T5 construct: purchased Invitrogen PV4788
Summary of the method: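 Kinase-Glo luminescence read-out of remaining ATP after PI3K reaction with PIP2 and ATP substrates in 50 mM HEPES pH 7.5, 3 mM MgCl2, 1 mM EGTA, 100 mM NaCl, 0.03% CHAPS, 2 mM DTT. Incubated at ambient temperature, 1 h for PI3Kα, 2 h for PI3Kδ. IC50 from four-parameter fit of % inhibition versus concentration.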

PI3Kγ = target: T6, PI3Kγ (Homo sapiens, UniProt P48736); test: PI3Kγ activity inhibition (ADP-Glo); format: biochemical; conditions: Table 1, graded
T6 construct: purchased Invitrogen PR8641C
Protocol: as §5, §3, §4

[4] = tested on: human breast cancer MCF-7 subcutaneous tumor; test: Subcutaneous tumor model, human breast cancer MCF-7; conditions: 30 mg/kg, once per 7 days, intraperitoneal
[5] = tested on: human breast cancer MDA-MB-231 subcutaneous tumor; test: Subcutaneous tumor model, human breast cancer MDA-MB-231; conditions: 30 mg/kg, once per 7 days, intraperitoneal
Protocol: Cell MM1S is cultured in RPMI1640 medium (HyClone) which contains 10% fetal calf serum (Hohhot Caoyuan Lvye Bioengineering Material Co., Ltd.) and 100 U/mL penicillin and streptomycin (Beyotime).
3) Inoculation, grouping and treatment: collecting cells in logarithmic phase under aseptic conditions and counting; diluting the single cell suspension with the medium containing neither fetal calf serum nor antibiotics to 1×10^7-8 cell/mL for standby. Mixing the cell suspension; injecting 100 μL of cell suspension (5×10^6-2×10^7 cells) subcutaneously with a 1 mL injector on the right side of the back of animals. Weeding out the animals with oversized and undersized tumor when the tumor grows to an average volume of about 120 mm^3 and grouping the qualified animals for treatment and drug administration. Refer to Table 7 for each grouping model and drug administration frequency. Measuring the weight of each model per 2 days and measuring the length and width of the tumor with a vernier caliper; killing the tested animals through cervical dislocation and peeling off their tumors for weight measuring and photographing. Then calculating the tumor inhibition ratio (%) and evaluating the inhibition intensity to tumor with such tumor inhibition ratio.

[6] = Table 1, graded, read-out: HDAC1 IC50
[7] = 96 h incubation, read-out: Proliferation IC50, Colon cancer hct116
[8] = 96 h incubation, read-out: Proliferation IC50, Acute myeloid leukemia MV4-11

T1 sequence (Q13547 whole entry, species assumed): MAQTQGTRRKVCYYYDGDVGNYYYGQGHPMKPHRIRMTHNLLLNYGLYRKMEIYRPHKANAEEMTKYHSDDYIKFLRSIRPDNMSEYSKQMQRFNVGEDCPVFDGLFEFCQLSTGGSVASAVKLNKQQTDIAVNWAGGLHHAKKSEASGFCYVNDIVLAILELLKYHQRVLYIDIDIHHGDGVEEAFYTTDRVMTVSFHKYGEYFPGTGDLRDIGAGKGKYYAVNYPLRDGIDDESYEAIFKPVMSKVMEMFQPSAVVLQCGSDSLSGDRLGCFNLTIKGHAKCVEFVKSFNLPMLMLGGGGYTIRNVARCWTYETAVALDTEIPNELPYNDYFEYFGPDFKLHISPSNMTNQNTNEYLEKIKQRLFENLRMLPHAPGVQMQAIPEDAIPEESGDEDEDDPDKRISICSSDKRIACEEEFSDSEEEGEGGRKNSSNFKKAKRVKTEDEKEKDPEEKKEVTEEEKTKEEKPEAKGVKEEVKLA
T5 sequence (P42336 whole entry, species assumed): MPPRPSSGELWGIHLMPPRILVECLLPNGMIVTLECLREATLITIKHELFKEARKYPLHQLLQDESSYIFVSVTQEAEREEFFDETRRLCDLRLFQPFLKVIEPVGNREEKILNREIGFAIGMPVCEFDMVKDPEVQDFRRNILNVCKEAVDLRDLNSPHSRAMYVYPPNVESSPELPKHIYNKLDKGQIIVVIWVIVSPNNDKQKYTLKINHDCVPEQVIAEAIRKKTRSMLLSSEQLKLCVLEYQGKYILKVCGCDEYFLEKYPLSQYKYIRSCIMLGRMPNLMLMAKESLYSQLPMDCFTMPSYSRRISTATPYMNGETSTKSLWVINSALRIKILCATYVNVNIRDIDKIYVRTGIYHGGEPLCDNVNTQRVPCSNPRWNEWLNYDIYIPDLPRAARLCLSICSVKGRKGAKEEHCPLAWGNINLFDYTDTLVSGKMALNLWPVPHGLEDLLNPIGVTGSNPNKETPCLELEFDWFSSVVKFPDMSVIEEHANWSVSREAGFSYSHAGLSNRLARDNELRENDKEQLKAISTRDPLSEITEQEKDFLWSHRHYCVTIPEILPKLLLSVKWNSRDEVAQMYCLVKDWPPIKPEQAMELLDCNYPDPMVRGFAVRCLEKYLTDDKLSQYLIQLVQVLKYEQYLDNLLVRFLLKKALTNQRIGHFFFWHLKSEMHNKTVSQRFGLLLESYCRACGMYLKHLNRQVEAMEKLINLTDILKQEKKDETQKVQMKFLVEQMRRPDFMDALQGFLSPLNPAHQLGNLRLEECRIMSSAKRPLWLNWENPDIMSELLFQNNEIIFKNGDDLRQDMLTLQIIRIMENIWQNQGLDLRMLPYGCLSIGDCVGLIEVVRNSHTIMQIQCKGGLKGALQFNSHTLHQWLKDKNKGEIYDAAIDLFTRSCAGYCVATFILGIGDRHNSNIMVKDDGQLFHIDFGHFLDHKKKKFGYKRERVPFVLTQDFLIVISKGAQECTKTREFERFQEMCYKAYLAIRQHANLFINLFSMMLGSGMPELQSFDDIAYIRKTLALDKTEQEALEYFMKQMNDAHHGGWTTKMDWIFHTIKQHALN
T5 sequence (P27986 whole entry partner, species assumed): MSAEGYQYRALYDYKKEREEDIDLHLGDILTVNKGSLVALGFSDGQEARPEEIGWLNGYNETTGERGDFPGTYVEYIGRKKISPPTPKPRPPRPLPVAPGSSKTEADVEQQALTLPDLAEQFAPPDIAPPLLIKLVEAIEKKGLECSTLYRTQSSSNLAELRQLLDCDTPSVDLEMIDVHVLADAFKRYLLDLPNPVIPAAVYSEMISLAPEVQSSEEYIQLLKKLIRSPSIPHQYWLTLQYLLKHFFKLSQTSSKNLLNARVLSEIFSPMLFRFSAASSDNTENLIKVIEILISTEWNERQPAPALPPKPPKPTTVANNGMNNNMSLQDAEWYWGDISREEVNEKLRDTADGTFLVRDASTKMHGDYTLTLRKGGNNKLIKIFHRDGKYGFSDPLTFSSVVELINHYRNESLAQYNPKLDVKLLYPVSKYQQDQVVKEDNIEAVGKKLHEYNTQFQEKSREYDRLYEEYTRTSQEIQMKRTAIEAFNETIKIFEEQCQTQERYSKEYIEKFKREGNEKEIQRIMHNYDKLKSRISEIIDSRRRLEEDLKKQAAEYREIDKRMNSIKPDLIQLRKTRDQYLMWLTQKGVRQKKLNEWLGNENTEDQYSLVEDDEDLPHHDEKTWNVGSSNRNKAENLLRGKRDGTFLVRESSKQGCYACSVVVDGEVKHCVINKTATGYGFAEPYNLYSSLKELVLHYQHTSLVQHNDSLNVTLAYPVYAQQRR
T6 sequence (P48736 whole entry): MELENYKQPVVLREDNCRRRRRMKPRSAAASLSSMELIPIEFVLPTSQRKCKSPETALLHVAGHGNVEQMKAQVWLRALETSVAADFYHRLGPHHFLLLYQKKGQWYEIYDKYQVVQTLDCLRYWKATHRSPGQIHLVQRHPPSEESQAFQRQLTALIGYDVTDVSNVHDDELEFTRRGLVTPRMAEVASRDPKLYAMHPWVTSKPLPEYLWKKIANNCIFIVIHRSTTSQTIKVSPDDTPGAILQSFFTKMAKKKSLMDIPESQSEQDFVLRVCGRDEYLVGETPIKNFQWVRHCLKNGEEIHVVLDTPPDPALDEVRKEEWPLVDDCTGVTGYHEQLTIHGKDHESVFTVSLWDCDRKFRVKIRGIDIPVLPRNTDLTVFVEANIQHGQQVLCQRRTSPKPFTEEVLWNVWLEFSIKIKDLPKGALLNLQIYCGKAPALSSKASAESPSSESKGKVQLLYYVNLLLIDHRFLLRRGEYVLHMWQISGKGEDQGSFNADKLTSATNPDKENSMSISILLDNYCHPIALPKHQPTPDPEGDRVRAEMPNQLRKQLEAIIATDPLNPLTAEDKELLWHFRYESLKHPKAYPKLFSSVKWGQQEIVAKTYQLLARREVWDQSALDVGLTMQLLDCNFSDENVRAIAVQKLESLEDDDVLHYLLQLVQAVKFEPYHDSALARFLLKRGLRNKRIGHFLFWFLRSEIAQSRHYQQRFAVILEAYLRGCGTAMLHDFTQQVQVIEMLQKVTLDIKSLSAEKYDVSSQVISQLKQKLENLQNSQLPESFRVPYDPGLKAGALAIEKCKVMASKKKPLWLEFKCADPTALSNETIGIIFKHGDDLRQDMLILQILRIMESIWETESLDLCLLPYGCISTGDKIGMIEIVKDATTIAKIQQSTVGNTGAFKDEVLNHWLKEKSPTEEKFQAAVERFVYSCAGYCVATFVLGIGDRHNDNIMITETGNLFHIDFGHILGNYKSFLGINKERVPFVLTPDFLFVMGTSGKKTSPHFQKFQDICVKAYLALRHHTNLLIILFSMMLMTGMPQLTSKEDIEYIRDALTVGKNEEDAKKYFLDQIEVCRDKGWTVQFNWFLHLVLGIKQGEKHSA
T4 sequence (O00329 whole entry): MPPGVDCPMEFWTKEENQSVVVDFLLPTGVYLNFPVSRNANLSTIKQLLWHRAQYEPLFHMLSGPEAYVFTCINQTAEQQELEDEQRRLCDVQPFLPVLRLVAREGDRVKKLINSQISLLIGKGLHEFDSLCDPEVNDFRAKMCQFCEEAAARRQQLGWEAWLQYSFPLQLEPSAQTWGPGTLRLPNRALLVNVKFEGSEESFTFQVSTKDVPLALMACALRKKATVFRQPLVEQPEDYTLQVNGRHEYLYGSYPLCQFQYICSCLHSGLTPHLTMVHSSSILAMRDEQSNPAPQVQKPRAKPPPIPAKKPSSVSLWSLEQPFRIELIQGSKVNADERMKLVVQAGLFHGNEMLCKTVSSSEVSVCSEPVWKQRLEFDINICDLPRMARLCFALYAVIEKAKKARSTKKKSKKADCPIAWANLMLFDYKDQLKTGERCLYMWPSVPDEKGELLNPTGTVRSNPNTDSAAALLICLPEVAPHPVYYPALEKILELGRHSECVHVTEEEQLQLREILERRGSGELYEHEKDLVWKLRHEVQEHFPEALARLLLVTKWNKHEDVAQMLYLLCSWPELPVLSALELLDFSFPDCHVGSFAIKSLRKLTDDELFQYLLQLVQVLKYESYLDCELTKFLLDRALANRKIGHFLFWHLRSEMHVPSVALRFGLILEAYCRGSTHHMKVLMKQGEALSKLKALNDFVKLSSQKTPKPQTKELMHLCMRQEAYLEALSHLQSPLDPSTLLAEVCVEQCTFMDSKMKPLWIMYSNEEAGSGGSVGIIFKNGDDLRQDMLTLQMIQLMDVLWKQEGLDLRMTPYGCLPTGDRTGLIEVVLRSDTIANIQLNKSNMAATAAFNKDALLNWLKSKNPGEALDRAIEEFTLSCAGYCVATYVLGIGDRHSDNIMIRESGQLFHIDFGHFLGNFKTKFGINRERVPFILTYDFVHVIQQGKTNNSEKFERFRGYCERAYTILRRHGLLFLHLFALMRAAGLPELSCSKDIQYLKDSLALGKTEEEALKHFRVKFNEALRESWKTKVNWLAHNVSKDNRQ
T4 sequence (P27986 whole entry partner): as the sequence (P27986 whole entry partner, species assumed) above

SMILES | pIC50 (HDAC1; [6]) | pIC50 [1, 7] | pIC50 [2] | pIC50 [3, 8] | pIC50 (PI3Kα) | other results
CCCN(Cc1nc2c(N3CCOCC3)nc(-c3ccc(OC)nc3)nc2n1C)c1ncc(C(=O)NO)cn1 [CLJ-6, N-hydroxy-2-(((2-(6-methoxyl-3-pyridyl)-9-methyl-6-morpholine-9H-purine-8-yl))methyl(propyl)amino)pyrimidine-5-formamide] | 6.00 to 7.00 | < 6.00 | < 6.00 | < 6.00 | < 5.00 | pIC50 (mTOR): < 5.00; pIC50 (PI3Kβ): < 5.00; pIC50 (PI3Kδ): < 5.00; pIC50 (PI3Kγ): < 5.00
CC(=O)O[C@H]1C(=O)[C@@]2(C)[C@H]([C@H](OC(=O)c3ccccc3)[C@]3(O)C[C@H](OC(=O)[C@H](O)[C@@H](NC(=O)c4ccccc4)c4ccccc4)C(C)=C1C3(C)C)[C@]1(OC(C)=O)CO[C@@H]1C[C@@H]2O [Paclitaxel] | – | – | – | – | – | Death [4]: 0/6; Inhibitory rate (%) [4]: 77.73%; Death [5]: 0/6; Inhibitory rate (%) [5]: 59.19%
Cc1ccc(-c2nc(N3CCOCC3)c3nc(CN(C)c4ncc(C(=O)NO)cn4)n(C)c3n2)cc1 [CLJ-60, 2-(((2-(p-methylbenzene)-9-methyl-6-morpholine-9H-purine-8-yl))methyl(methyl)amino)-N-hydroxyl pyrimidine-5-formamide] | > 7.00 | 7.00 to 8.00 | 8.00 to 10.00 | 8.00 to 10.00 | < 5.00 | –
CN(Cc1nc2c(N3CCOCC3)nc(-c3ccc(C(=O)O)s3)nc2n1C)c1ncc(C(=O)NO)cn1 [CLJ-20, 2-(((2-(5-carboxyl-2-thienyl)-9-methyl-6-morpholine-9H-purine-8-yl))methyl(methyl)amino)-N-hydroxyl pyrimidine-5-formamide] | > 7.00 | 8.00 to 10.00 | 7.00 to 8.00 | 8.00 to 10.00 | < 5.00 | –
COc1ccc(C(F)(F)F)cc1-c1nc(N2CCOCC2)c2nc(CN(C)c3ncc(C(=O)NO)cn3)n(C)c2n1 [CLJ-38, 2-(((2-(2-methoxy-5-trifluoromethylphenyl)-9-methyl-6-morpholine-9H-purine-8-yl))methyl(methyl)amino)-N-hydroxyl pyrimidine-5-formamide] | > 7.00 | 6.00 to 7.00 | 7.00 to 8.00 | 8.00 to 10.00 | < 5.00 | pIC50 ([1]; read-out: IC50 to proliferation of hct116 cells): < 7.00; pIC50 ([3]; read-out: IC50 to proliferation of MV4-11 cells): > 8.00
CN(Cc1nc2c(N3CCOCC3)nc(-c3cccs3)nc2n1C)c1ncc(C(=O)NO)cn1 [CLJ-18, 2-(((2-(2-thienyl)-9-methyl-6-morpholine-9H-purine-8-yl))methyl(methyl)amino)-N-hydroxyl pyrimidine-5-formamide] | > 7.00 | 8.00 to 10.00 | 7.00 to 8.00 | 8.00 to 10.00 | < 5.00 | –
CN(Cc1nc2c(N3CCOCC3)nc(-c3ccc(C(F)(F)F)cc3)nc2n1C)c1ncc(C(=O)NO)cn1 [CLJ-55] | > 7.00 | 7.00 to 8.00 | 7.00 to 8.00 | 8.00 to 10.00 | < 5.00 | –
CN(Cc1nc2c(N3CCOCC3)nc(-c3cccnc3)nc2n1C)c1ncc(C(=O)NO)cn1 [CLJ-9, 2-(((2-(3-pyridyl)-9-methyl-6-morpholine-9H-purine-8-yl))methyl(methyl)amino)-N-hydroxyl pyrimidine-5-formamide] | > 9.00 | 7.00 to 8.00 | 7.00 to 8.00 | 8.00 to 10.00 | < 5.00 | pIC50 (HDAC1; read-out: inhibition value IC50 to the activity of HDAC1): > 9.00
CCn1c(CN(C)c2ncc(C(=O)NO)cn2)nc2c(N3CCOCC3)nc(-c3ccc(OC)cc3)nc21 [CLJ-30, 2-((9-ethyl-2(4-methoxyphenyl)-6-morpholino-9H-purine-8-yl)methyl)(methyl)amino-N-hydroxyl pyrimidine-5-formamide] | > 7.00 | 7.00 to 8.00 | 7.00 to 8.00 | 8.00 to 10.00 | < 5.00 | –
COc1ccc(-c2nc(N3CCOCC3)c3nc(CN(C)c4ncc(C(=O)NO)cn4)n(C(C)C)c3n2)cc1 [CLJ-31] | 6.00 to 7.00 | < 6.00 | < 6.00 | < 6.00 | < 5.00 | –
CN(Cc1nc2c(N3CCOCC3)nc(-c3cc(C(F)(F)F)cc(C(F)(F)F)c3)nc2n1C)c1ncc(C(=O)NO)cn1 [CLJ-56] | > 7.00 | 6.00 to 7.00 | 6.00 to 7.00 | 7.00 to 8.00 | < 5.00 | –
